Measurements from ChEMBL document CHEMBL4002643, “Tubulin-binding dibenz[c,e]oxepines: Part 2. Structural variation and biological evaluation as tumour vasculature disrupting agents” (Bioorg Med Chem, 2017).

Key:
[1] = Inhibition of porcine tubulin assembly measured for 30 mins by UV/visible spectrophotometric method; design: species or system Sus scrofa
[2] = system: K562; experiment: Cytotoxicity against human K562 cells assessed as growth inhibition after 5 days by MTT assay; format: functional, cell-based; settings: K562, 120 h
[3] = Inhibition of tubulin (unknown origin) assembly preincubated for 30 mins followed by GTP addition by spectrophotometric method; design: species or system Homo sapiens

Row | SMILES | IC50 [1] [nM] | IC50 [2] [nM] | IC50 [3] [nM]
1 | COc1ccc(/C=C\c2cc(OC)c(OC)c(OC)c2)cc1OP(=O)(O)O [FOSBRETABULIN DISODIUM] | 900 | 720 | –
2 | COc1cc2c(c(OC)c1OC)-c1ccc(OC)c(=O)cc1[C@@H](NC(C)=O)CC2 [COLCHICINE] | 2000 | – | –
3 | COc1ccc2c(c1)[C@@H](NC(C)=O)CCc1cc(OC)c(OC)c(OC)c1-2 | – | – | 700
4 | COc1ccc(/C=C\c2cc(OC)c(OC)c(OC)c2)cc1O [COMBRETASTATIN A4] | – | 1000 | –
